Results reported in patent US20120190752A1, “EXO-S-MECAMYLAMINE METHOD, USE, AND COMPOUND FOR TREATMENT” (Targacept Inc., priority 2009, published 2012).

Tested on: subjects with major depressive disorder (MDD) who were inadequate responders to citalopram
Assay: MADRS total score, Phase 2b add-on trial
Type: in vivo, human
Excerpt: The Montgomery-Asberg Depression Rating Scale (abbreviated MADRS) is a ten-item diagnostic questionnaire which psychiatrists may use to measure the severity of depressive episodes in patients with mood disorders (Montgomery et al. 1979). It was designed in 1979 by British and Swedish researchers as an adjunct to the Hamilton Rating Scale for Depression (HAMD) which would be more sensitive to the changes brought on by antidepressants and other forms of treatment than the HAMD. There is, however, a high degree of statistical correlation between scores on the two measures. In more detail, a multi-center double-blind, randomized, placebo-controlled, parallel group, flexible dose titration study of TC-5214 as adjunctive therapy in subjects with major depressive disorder (MDD) who were inadequate responders to citalopram was conducted in centers in the US and India. The study consisted of a screening period, baseline/washout period, open-label phase, double-blind phase, and a follow-up visit. Subject participation in the study could continue for up to 16 weeks of treatment. Following a washout period of up to 28 days for other antidepressants, subjects with MDD and a MADRS total score >/=28 and a Clinical Global Impression-Severity (CGI-S) score >/=4 were enrolled on Day 1 into an open-label citalopram-only phase of the study. This phase lasted 8 weeks, with citalopram (CIT) dose increased from a once-daily dose of 20 mg (Day 1 through Week 4) to 40 mg (Week 4 through Week 8). A total of 579 subjects entered the open-label citalopram phase. At Week 8, subjects who tolerated 40 mg CIT, but whose MADRS score was reduced <50% from baseline and no lower than 17, and CGI-S≧4, were considered inadequate responders. These subjects (n=270) were randomized in a double-blind fashion to receive either placebo or TC-5214-23 as add-on therapy to continued CIT. The double-blind phase of the study also lasted 8 weeks (Week 8 to Week 16). Study drug, TC-5214-23 or placebo, was started at 2 mg daily (1 mg twice per day [BID] dosing), added on to continuing CIT (40 mg PO qd). After 2 weeks of treatment, the dose of TC-5214 could be increased to 4 mg (2 mg BID) or continued unchanged, with up-titration based upon good tolerability and inadequate therapeutic response. After a further 2 weeks, the dose of TC-5214 could be increased again to 8 mg (4 mg BID) if judged appropriate by the investigator, based upon good tolerability and inadequate therapeutic response. At any time during the double-blind phase of the study, placebo or TC-5214-23 could be reduced to the previous dose level following the emergence of unacceptable adverse events (AEs). […] At this follow-up, any signs or symptoms of relapse were evaluated. If a subject was prematurely discontinued from the study between Week 8 and Week 16 for any reason, the investigator was to make every effort to perform all evaluations as per protocol, assuming the subject had reached the end of the double-blind add-on treatment phase. These evaluations were to be made as soon as possible and within 2 weeks of discontinuation. […] There was no meaningful difference in results as a function of age, gender, site, or smoking status. With regard to efficacy endpoints, the following tables present efficacy used in the ITT (Intent-to-Treat) and PP (Per Protocol) populations unless otherwise specific. The primary inference was based upon Week 16 visit using the ITT population. Change from baseline was obtained by subtracting the baseline values from the individual on-treatment values. Change from Week 16 was obtained by subtracting the Week 16 values from the individual follow-up visit (Week 18/19) values. If either the baseline or Week 16 or on-treatment or follow-up value was missing, the change from baseline or Week 16 value was also set to missing. […]

[1] = ITT (N = 133), Double Blind Week 16
[2] = ITT (N = 133), Double Blind Week 18 (Follow-up)
[3] = ITT and PP populations, result in words
[4] = ITT population, Week 8 (double-blind baseline) to Week 16
[5] = ITT, Double Blind Week 18 LOCF (Follow-up), change from Week 16
[6] = PP (N = 113), Double Blind Week 16
[7] = PP (N = 113), Double Blind Week 18 (Follow-up)
[8] = PP, Double Blind Week 16 LOCF (change from Week 8)
[9] = PP, Double Blind Week 18 LOCF (Follow-up), change from Week 16

## CNC1(C)C2CCC(C2)C1(C)C (stereo in doubt) [TC-5214, (S)—N,2,3,3-tetramethylnorbornan-2-amine]
[1]
  MADRS reduction from baseline ≧50%: Subjects with Response (number): 89
  MADRS reduction from baseline ≧50%: Subjects with Response (percentage): (67%)
  MADRS reduction from baseline ≧50%: Subjects without Response (number): 44
  MADRS reduction from baseline ≧50%: Subjects without Response (percentage): (33%)
  MADRS ≦10: Subjects with Remission (number): 69
  MADRS ≦10: Subjects with Remission (percentage): (52%)
  MADRS ≦10: Subjects without Remission (number): 64
  MADRS ≦10: Subjects without Remission (percentage): (48%)
  MADRS ≦12: Subjects with Remission (number): 77
  MADRS ≦12: Subjects with Remission (percentage): (58%)
  MADRS ≦12: Subjects without Remission (number): 56
  MADRS ≦12: Subjects without Remission (percentage): (42%)
[2]
  MADRS reduction from baseline ≧50%: Subjects with Response (number): 94
  MADRS reduction from baseline ≧50%: Subjects with Response (percentage): (71%)
  MADRS reduction from baseline ≧50%: Subjects without Response (number): 39
  MADRS reduction from baseline ≧50%: Subjects without Response (percentage): (29%)
  MADRS ≦10: Subjects with Remission (number): 73
  MADRS ≦10: Subjects with Remission (percentage): (55%)
  MADRS ≦10: Subjects without Remission (number): 60
  MADRS ≦10: Subjects without Remission (percentage): (45%)
  MADRS ≦12: Subjects with Remission (number): 86
  MADRS ≦12: Subjects with Remission (percentage): (65%)
  MADRS ≦12: Subjects without Remission (number): 47
  MADRS ≦12: Subjects without Remission (percentage): (35%)
[3]
  MADRS remission (≦10 or ≦12) proportion compared with placebo: higher proportion of subjects meeting the remission criteria
  MADRS responders (reduction from baseline ≧50%) proportion compared with placebo: higher proportion of responders
  MADRS total score change from baseline compared with placebo: statistically significant decreases (improvements)
[4]
  MADRS Total Score: Adjusted Mean Change TC-5214—Placebo (SD): −7.54 (10.13)
  MADRS Total Score: Effect Size: 0.74
ITT, Double Blind Week 16 LOCF (change from Week 8)
  MADRS Mean Difference between TC-5214 and Placebo: 7.54
[5]
  MADRS Adjusted Mean change: −0.87
  MADRS Mean Difference between TC-5214 and Placebo: −0.54
ITT, Week 8 to Week 16 LOCF
  MADRS Difference vs Placebo + CIT: −7.45
ITT, change from Week 8 (double-blind baseline) to Week 16 LOCF, add-on to citalopram
  MADRS Adj. Mean change: −17.26
[6]
  MADRS reduction from baseline ≧50%: Subjects with Response (number): 84
  MADRS reduction from baseline ≧50%: Subjects with Response (percentage): (74%)
  MADRS reduction from baseline ≧50%: Subjects without Response (number): 29
  MADRS reduction from baseline ≧50%: Subjects without Response (percentage): (26%)
  MADRS ≦10: Subjects with Remission (number): 67
  MADRS ≦10: Subjects with Remission (percentage): (59%)
  MADRS ≦10: Subjects without Remission (number): 46
  MADRS ≦10: Subjects without Remission (percentage): (41%)
  MADRS ≦12: Subjects with Remission (number): 72
  MADRS ≦12: Subjects with Remission (percentage): (64%)
  MADRS ≦12: Subjects without Remission (number): 41
  MADRS ≦12: Subjects without Remission (percentage): (36%)
[7]
  MADRS reduction from baseline ≧50%: Subjects with Response (number): 89
  MADRS reduction from baseline ≧50%: Subjects with Response (percentage): (79%)
  MADRS reduction from baseline ≧50%: Subjects without Response (number): 24
  MADRS reduction from baseline ≧50%: Subjects without Response (percentage): (21%)
  MADRS ≦10: Subjects with Remission (number): 70
  MADRS ≦10: Subjects with Remission (percentage): (62%)
  MADRS ≦10: Subjects without Remission (number): 43
  MADRS ≦10: Subjects without Remission (percentage): (38%)
  MADRS ≦12: Subjects with Remission (number): 81
  MADRS ≦12: Subjects with Remission (percentage): (72%)
  MADRS ≦12: Subjects without Remission (number): 32
  MADRS ≦12: Subjects without Remission (percentage): (28%)
[8]
  MADRS Adjusted Mean change: −19.34
  MADRS Mean Difference between TC-5214 and Placebo: 7.97
[9]
  MADRS Adjusted Mean change: −1.10
  MADRS Mean Difference between TC-5214 and Placebo: −0.20
